Laboratory results taken from ChEMBL document CHEMBL1201862, “PubChem BioAssay data set” (2004).
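Compound exposure: 48 hours, 5 concentrations, 96-well plates. GI50 = concentration required for 50% inhibition of growth.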 Active and inactive are the calls of the source. No stated cut-off is given here; in the data, active = GI50 up to about 1.1 µM and inactive = higher.

Assays:
Experiment in all cases: NCI-60 cell line screen, 48 h
Hs-578T = system: Hs-578T
DMS-273 = system: DMS-273
XF498 = system: XF498
DMS-114 = system: DMS-114
HOP-18 = system: HOP-18
DLD-1 = system: DLD-1
M19-MEL = system: M19-MEL
KM-20L2 = system: KM-20L2
RXF 631 = system: RXF 631

CSS(C)(=O)=O
GI50 (Hs-578T): 49.2 µM (inactive)

Cc1c(CCO)c(O)n2c(nc3ccccc32)c1C#N
GI50 (DMS-273): 63.2 µM (inactive) | GI50 (XF498): > 100 µM (inactive) | GI50 (DMS-114): 44.5 µM (inactive) | GI50 (HOP-18): 47.5 µM (inactive) | GI50 (DLD-1): > 100 µM (inactive) | GI50 (M19-MEL): > 100 µM (inactive) | GI50 (KM-20L2): 66.5 µM (inactive)

CSC1(SC2=NCCN2)SC2(NCCN2)S1
GI50 (Hs-578T): 24.3 µM (inactive)

CCN1c2ccccc2-c2c3c1cc(C)cc3c1ccccc1[n+]2CC
GI50 (DMS-273): 0.385 µM (active) | GI50 (DMS-114): 0.461 µM (active) | GI50 (RXF 631): 5.24 µM (inactive) | GI50 (DLD-1): 2.55 µM (inactive) | GI50 (M19-MEL): 0.36 µM (active)

Sc1ncnc2c1ncn2Cc1ccco1
GI50 (Hs-578T): > 100 µM (inactive)

OC1(C(O)(c2ccc(-c3ccccc3)cc2)c2ccc(-c3ccccc3)cc2)CCCCC1
GI50 (Hs-578T): > 100 µM (inactive)

Nc1nc(N)nc(CC(=O)O)n1
GI50 (Hs-578T): > 100 µM (inactive)

CN(C)c1ccc(/C=C2\Oc3ccccc3C2=O)cc1
GI50 (Hs-578T): 22.5 µM (inactive)

CCCCCCCCCCCCCCCCCCNc1ccn(C2OC(COP(=O)(O)OCC3OC(n4ccc(N)nc4=O)C(O)C3O)C(O)C2O)c(=O)n1 (stereo not drawn)
GI50 (Hs-578T): > 100 µM (inactive)

Oc1ccc(/C=N/c2ccccc2O)cc1
GI50 (Hs-578T): 37.2 µM (inactive)

C=CC(C)CCC(C/C=C(\C)CCCC(C)C)C(=C)CCCC(C)C (stereo not drawn)
GI50 (Hs-578T): > 100 µM (inactive)

C/C(=N/NC(=S)Nc1ccc([N+](=O)[O-])cc1)c1cccc(/C(C)=N\NC(=S)Nc2ccc([N+](=O)[O-])cc2)n1
GI50 (Hs-578T): 3.9 µM (inactive)

O=C1C(Cl)C(c2ccccc2Cl)N1n1cnc2ccccc2c1=O (stereo not drawn)
GI50 (DMS-273): 26 µM (inactive) | GI50 (XF498): 67.6 µM (inactive) | GI50 (DMS-114): 16.4 µM (inactive) | GI50 (DLD-1): 61.7 µM (inactive) | GI50 (M19-MEL): > 100 µM (inactive) | GI50 (KM-20L2): > 100 µM (inactive)

CC(=O)O[C@H]1CCC2[C@@H]3CCC4=C(O)C(=O)C(C#N)C[C@]4(C)C3CC[C@@]21C (stereo partly drawn)
GI50 (DMS-273): 19.4 µM (inactive) | GI50 (XF498): 22 µM (inactive) | GI50 (DMS-114): 25.6 µM (inactive) | GI50 (DLD-1): 25.4 µM (inactive) | GI50 (M19-MEL): 45.2 µM (inactive) | GI50 (KM-20L2): 81.3 µM (inactive)

CC(=O)N(C)c1ccc(Nc2ccnc3ccc4nn(C)nc4c23)cc1
GI50 (Hs-578T): 17.3 µM (inactive)

C/C(Cl)=N\OC(=O)Nc1ccc(C)cc1
GI50 (Hs-578T): 28.6 µM (inactive)

Clc1cc2ns[s+]c2cc1Cl
GI50 (DMS-273): 32.3 µM (inactive) | GI50 (XF498): > 83.6 µM (inactive) | GI50 (DMS-114): 29.1 µM (inactive) | GI50 (RXF 631): 60.3 µM (inactive) | GI50 (DLD-1): 13.1 µM (inactive) | GI50 (M19-MEL): 61.4 µM (inactive) | GI50 (KM-20L2): 14.3 µM (inactive)

OC1C2CN3CCN(C2)CC1(c1ccccc1)C3 (stereo not drawn)
GI50 (Hs-578T): > 100 µM (inactive)

COC(=O)C(=O)Nc1cc2c3c(c1)Oc1cccc4c1C3(C)c1c(cccc1O2)O4
GI50 (Hs-578T): > 83.4 µM (inactive)

CC(=O)OC1C(O)COC(O[C@H]2CC[C@]34C[C@]35CC[C@]3(C)C([C@@]6(C)CC[C@@H](C(C)(C)O)O6)[C@@H](O)C[C@@]3(C)C5C[C@H](OC3OCC(O)C(O)C3O)[C@H]4C2(C)C)C1OC1OCC(O)C(O)C1O (stereo partly drawn)
GI50 (Hs-578T): > 100 µM (inactive)

COc1ccc(/C=C/C(=N/NC(=O)N/N=C(/C=C/c2ccc(OC)cc2)C(C)(C)CN2CCCCC2)C(C)(C)CN2CCCCC2)cc1
GI50 (Hs-578T): 1.87 µM (inactive)

O=C1c2ccccc2-n2nnnc2C2CSCN12 (stereo not drawn)
GI50 (Hs-578T): > 100 µM (inactive)

CC(C)(C)O/N=C/c1cc(NC(=S)c2ccsc2)ccc1Cl
GI50 (Hs-578T): 23.3 µM (inactive)

COC(=O)CNS(=O)(=O)c1ccc(-c2c3nc(c(-c4ccc(S(=O)(=O)NCC(=O)OC)cc4)c4ccc([nH]4)c(-c4ccc(S(=O)(=O)NCC(=O)OC)cc4)c4nc(c(-c5ccc(S(=O)(=O)NCC(=O)OC)cc5)c5ccc2[nH]5)C=C4)C=C3)cc1
GI50 (Hs-578T): > 100 µM (inactive)

CCCNC(=O)OCc1c(COC(=O)NCCC)c(-c2ccc(Cl)c(Cl)c2)n2c1CCC2
GI50 (Hs-578T): 6.56 µM (inactive)

CN1C(=S)CSc2ccccc21
GI50 (DMS-273): > 100 µM (inactive) | GI50 (XF498): 32.4 µM (inactive) | GI50 (DMS-114): > 100 µM (inactive) | GI50 (DLD-1): > 100 µM (inactive) | GI50 (M19-MEL): > 100 µM (inactive) | GI50 (KM-20L2): > 100 µM (inactive)

COc1ccc(N2C(=O)[C@@H]3[C@H](C2=O)c2[nH]c4ccccc4c2C2CCC(C(C)(C)C)C[C@@H]23)cc1 (stereo partly drawn)
GI50 (DMS-273): 41.8 µM (inactive) | GI50 (XF498): 44.8 µM (inactive) | GI50 (DLD-1): 37.7 µM (inactive) | GI50 (M19-MEL): 46.9 µM (inactive) | GI50 (KM-20L2): 61.9 µM (inactive)

CC1=C(C(=O)O)N2C(=O)[C@@H](NC(=O)C(c3ccc(O)cc3)N3CSC(=S)N(C(C)C)C3)C2SC1 (stereo partly drawn)
GI50 (DMS-273): > 100 µM (inactive) | GI50 (XF498): > 100 µM (inactive) | GI50 (DMS-114): > 100 µM (inactive) | GI50 (HOP-18): > 100 µM (inactive) | GI50 (DLD-1): > 100 µM (inactive) | GI50 (M19-MEL): > 100 µM (inactive) | GI50 (KM-20L2): > 100 µM (inactive)

COc1ccc(C(SCCO)(c2ccccc2)c2ccc(OC)cc2)cc1
GI50 (Hs-578T): 11.1 µM (inactive)

COc1ccc2nc3c([N+](=O)[O-])ccc(NCCN(C)C)c3c(N)c2c1
GI50 (Hs-578T): 2.62 µM (inactive)

COc1ccc(/C=C/c2cc(O)cc(OC3OC(CO)C(O)C(O)C3O)c2)cc1O (stereo not drawn)
GI50 (Hs-578T): > 100 µM (inactive)

Cc1ccccc1NC(=O)c1nc(S)nc(N)c1-c1ccccc1C
GI50 (DMS-273): > 100 µM (inactive) | GI50 (DMS-114): > 100 µM (inactive) | GI50 (HOP-18): > 100 µM (inactive) | GI50 (DLD-1): > 100 µM (inactive) | GI50 (M19-MEL): > 100 µM (inactive) | GI50 (KM-20L2): > 100 µM (inactive)
